{"source": "ChEMBL document CHEMBL1201862", "about": "“PubChem BioAssay data set” (2004)", "key": {"[1]": {"biological_target": "Intestinal-type alkaline phosphatase (Mus musculus, UniProt P24822)", "sequence (P24822 whole entry)": "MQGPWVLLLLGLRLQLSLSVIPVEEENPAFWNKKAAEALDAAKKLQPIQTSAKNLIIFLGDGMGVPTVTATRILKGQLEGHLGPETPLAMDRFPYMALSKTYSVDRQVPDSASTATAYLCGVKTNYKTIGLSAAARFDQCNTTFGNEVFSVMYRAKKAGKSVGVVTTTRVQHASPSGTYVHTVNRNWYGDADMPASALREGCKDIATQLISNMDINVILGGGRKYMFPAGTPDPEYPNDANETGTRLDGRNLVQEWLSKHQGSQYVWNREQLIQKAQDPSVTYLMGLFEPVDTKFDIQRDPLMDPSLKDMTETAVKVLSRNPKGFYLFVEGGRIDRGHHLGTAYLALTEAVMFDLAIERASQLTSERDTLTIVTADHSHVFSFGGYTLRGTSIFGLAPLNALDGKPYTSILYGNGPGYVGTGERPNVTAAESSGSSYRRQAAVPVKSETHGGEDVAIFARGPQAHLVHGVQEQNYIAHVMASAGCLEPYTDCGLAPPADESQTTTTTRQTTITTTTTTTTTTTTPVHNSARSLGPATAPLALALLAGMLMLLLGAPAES", "assay": "PubChem AID 488875", "format": "functional"}, "[2]": {"biological_target": "T1, Intestinal-type alkaline phosphatase (Homo sapiens, UniProt P09923)", "T1 sequence (P09923 whole entry)": "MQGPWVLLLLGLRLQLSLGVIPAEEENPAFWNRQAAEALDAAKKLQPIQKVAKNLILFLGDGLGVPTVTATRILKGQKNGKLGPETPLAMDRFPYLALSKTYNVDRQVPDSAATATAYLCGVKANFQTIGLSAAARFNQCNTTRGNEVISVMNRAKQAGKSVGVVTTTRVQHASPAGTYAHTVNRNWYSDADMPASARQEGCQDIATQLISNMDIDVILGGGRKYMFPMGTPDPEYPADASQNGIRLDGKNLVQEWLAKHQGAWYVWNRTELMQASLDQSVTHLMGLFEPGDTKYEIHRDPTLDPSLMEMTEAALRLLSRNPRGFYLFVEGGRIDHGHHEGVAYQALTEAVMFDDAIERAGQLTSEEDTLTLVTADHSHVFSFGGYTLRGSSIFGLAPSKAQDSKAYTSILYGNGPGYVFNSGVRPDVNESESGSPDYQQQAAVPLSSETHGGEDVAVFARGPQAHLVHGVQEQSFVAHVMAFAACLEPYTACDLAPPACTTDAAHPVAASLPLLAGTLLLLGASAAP", "assay": "human intestinal alkaline phosphatase activators, dose response, biochemical, luminescence, uHTS hits (AID 463120)", "format": "functional"}, "[3]": {"biological_target": "T1, Intestinal-type alkaline phosphatase", "assay": "human IAP activators, dose response, biochemical, luminescent, uHTS hits, set 2 (AID 488817);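 also: potency of activators that raise enzyme activity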", "format": "functional"}, "[4]": {"biological_target": "T2, Alkaline phosphatase, tissue-nonspecific isozyme (Homo sapiens, UniProt P05186)", "T2 sequence (P05186 whole entry)": "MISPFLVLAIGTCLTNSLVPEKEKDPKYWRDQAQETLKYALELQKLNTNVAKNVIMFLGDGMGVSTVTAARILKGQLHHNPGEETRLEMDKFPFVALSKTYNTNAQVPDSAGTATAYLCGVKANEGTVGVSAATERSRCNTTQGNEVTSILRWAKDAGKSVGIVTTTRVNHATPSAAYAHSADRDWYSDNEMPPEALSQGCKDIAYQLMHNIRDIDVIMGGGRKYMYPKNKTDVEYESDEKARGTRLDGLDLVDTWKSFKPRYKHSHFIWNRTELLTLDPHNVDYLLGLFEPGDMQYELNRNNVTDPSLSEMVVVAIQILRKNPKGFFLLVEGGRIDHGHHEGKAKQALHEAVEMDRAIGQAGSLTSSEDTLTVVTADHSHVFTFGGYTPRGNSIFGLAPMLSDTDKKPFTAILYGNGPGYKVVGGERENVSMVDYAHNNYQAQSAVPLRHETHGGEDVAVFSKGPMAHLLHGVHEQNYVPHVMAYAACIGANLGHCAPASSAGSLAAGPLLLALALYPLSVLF", "assay": "TNAP enzyme activators, dose response, selectivity assay for human IAP activator project, biochemical, TNAP isozyme, human IAP uHTS hits (AID 488886);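 also: potency of compounds raising TNAP activity as a selectivity check on IAP activators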", "format": "functional"}, "[5]": {"assay": "inhibitors of firefly luciferase expression or activity, dose response, H4 neuroglioma cells, luminescence (AID 1990)", "format": "functional, cell-based"}, "[6]": {"assay": "Luminescence Cell-Based Dose Response HTS to Identify Inhibitors of 5'UTR Stem-Loop Driven Prion Protein mRNA Translation in H4 Neuroglioblastoma Cells. [Related pubchem assays: 1827 (Project Summary), 1813 (Primary HTS)]", "format": "functional"}, "[7]": {"assay": "inhibitors of SNCA 5'UTR-driven reporter translation, confirmation, H4 neuroglioma cells, luminescence (AID 1988)", "format": "functional, cell-based"}, "[8]": {"biological_target": "G-protein coupled receptor 55 (Homo sapiens, UniProt Q9Y2T6)", "sequence (Q9Y2T6 whole entry)": "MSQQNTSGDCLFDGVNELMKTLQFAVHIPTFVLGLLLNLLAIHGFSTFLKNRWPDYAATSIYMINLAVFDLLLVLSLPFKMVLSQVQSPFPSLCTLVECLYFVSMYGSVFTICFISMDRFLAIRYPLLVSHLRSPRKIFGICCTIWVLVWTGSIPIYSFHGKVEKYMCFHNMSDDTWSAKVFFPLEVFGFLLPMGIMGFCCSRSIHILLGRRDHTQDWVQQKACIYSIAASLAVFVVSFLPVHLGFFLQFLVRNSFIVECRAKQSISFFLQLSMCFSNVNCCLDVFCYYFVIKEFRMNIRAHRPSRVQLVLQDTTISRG", "assay": "GPR55 antagonists blocking LPI-driven arrestin recruitment, primary screen, imaging, U2OS, beta-arrestin-GFP, LPI agonist (AID 2013);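 also: antagonist potency measured as reduced agonist-driven arrestin aggregation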", "format": "functional"}, "[9]": {"biological_target": "T3, Ubiquitin-conjugating enzyme E2 N (Homo sapiens, UniProt P61088)", "T3 sequence (P61088 whole entry)": "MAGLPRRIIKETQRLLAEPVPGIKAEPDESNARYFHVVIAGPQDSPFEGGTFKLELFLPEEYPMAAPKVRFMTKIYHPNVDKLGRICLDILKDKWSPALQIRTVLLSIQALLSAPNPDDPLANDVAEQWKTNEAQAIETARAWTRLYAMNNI", "format": "functional"}, "[10]": {"biological_target": "T4, Apoptotic protease-activating factor 1 (Homo sapiens, UniProt O14727)", "T4 sequence (O14727 whole entry)": "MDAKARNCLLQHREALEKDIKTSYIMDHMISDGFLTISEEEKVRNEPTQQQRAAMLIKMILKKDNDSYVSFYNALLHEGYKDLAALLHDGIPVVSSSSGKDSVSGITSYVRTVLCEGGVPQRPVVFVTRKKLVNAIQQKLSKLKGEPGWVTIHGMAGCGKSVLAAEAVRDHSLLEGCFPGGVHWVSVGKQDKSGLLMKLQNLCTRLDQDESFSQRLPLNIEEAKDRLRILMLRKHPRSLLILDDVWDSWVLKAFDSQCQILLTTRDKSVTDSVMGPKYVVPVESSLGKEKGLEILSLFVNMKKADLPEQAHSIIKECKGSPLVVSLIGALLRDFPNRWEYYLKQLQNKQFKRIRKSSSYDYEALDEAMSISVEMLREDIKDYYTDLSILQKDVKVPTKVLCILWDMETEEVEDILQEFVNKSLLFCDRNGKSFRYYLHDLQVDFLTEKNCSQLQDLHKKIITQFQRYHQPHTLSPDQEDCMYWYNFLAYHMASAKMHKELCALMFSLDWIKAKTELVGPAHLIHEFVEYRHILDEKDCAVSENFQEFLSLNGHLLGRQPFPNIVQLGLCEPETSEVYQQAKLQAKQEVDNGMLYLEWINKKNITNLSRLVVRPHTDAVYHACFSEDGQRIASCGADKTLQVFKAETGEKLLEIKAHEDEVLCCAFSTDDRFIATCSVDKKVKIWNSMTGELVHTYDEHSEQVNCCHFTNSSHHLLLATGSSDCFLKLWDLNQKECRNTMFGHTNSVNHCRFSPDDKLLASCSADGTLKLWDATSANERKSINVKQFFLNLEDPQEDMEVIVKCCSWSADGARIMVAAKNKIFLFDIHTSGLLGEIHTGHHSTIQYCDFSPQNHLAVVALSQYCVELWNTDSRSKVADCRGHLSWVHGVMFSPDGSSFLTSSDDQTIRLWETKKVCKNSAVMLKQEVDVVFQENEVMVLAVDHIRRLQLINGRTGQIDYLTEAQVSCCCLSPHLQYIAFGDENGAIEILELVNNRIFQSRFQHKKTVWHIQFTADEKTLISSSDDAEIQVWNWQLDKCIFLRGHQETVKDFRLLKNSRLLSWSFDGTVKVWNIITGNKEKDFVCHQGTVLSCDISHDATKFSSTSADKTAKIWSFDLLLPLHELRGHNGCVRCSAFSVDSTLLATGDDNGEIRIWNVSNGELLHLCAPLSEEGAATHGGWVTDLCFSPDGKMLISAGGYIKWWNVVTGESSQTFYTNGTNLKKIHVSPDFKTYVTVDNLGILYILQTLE", "format": "functional"}, "Hexokinase": {"biological_target": "Hexokinase (Trypanosoma brucei, UniProt Q38C41)", "sequence (Q38C41 whole entry)": "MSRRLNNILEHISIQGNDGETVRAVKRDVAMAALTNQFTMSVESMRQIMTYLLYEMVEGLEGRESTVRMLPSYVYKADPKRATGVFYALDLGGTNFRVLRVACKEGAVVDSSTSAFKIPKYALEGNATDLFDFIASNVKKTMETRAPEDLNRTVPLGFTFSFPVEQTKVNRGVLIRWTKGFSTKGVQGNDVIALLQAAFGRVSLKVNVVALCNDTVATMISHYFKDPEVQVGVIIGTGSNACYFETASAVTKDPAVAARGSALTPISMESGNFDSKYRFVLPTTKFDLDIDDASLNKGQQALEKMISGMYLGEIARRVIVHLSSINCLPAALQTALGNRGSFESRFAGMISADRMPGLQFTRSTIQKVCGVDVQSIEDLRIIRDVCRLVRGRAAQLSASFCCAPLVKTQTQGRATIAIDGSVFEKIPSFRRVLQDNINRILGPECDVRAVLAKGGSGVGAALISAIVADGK", "assay": "Confirmation assay for inhibitors of Trypanosoma brucei hexokinase 1-Analogue-first series. [Related pubchem assays (depositor defined):AID1430, AID1632, AID2516, AID2560, AID2579, AID2600, AID449725, AID492951]", "format": "functional"}}, "note": "Activity calls are given as the source filed them. Rule as the data show it, for most assays here: actives have a measured EC50 and inactives only a lower limit."}
{"smiles": "COc1cc(CN2CCC(n3nccc3NC(=O)CCCc3ccccc3)CC2)ccc1F", "values": [{"measurement": "EC50", "setting": "[1]", "value": "58.2 µM (active)"}, {"measurement": "EC50", "setting": "[2]", "value": "68.7 µM (active)"}, {"measurement": "EC50", "setting": "[3]", "value": "79.7 µM (active)"}, {"measurement": "EC50", "setting": "[4]", "value": "66.1 µM (active)"}]}
{"smiles": "CN1Cc2c(N3CCOCC3)nc3sc(C(=O)c4ccc(Br)cc4)c(N)c3c2CC1(C)C", "values": [{"measurement": "EC50", "setting": "[5]", "value": "10.4 µM (active)"}, {"measurement": "EC50", "setting": "[6]", "value": "11.6 µM (active)"}, {"measurement": "EC50", "setting": "[7]", "value": "8.58 µM (active)"}, {"measurement": "IC50", "setting": "[8]", "value": "3.9 µM (active)"}, {"measurement": "IC50", "setting": "[9]", "value": "> 20 µM (inactive)"}, {"measurement": "IC50", "setting": "[10]", "value": "15.8 µM (active)"}]}
{"smiles": "CCc1ccc(C(=O)Nc2cc(Cl)ccc2C(=O)O)cc1", "values": [{"measurement": "IC50", "setting": "Hexokinase", "value": "3.04 µM (active)"}]}
